Activity calls are given as the source filed them. No rule for the calls is given here.
System: CCRIS mutagenicity, Ames/micronucleus/aberration tests
Experiment: CCRIS mutagenicity studies

Nc1cccc(N)c1
mutagenic call (End Point: IN VITRO CHROMOSOMAL ABERRATIONS, Test System: CHINESE HAMSTER LUNG CELLS (CHL), Metabolic Activation: RAT, LIVER, S-9, KC-400): active; positive (structural changes)
mutagenic call (End Point: IN VITRO CHROMOSOMAL ABERRATIONS, Test System: CHINESE HAMSTER OVARY CELLS (CHO), Metabolic Activation: NONE): active; positive (structural changes)
mutagenic call (End Point: IN VITRO CHROMOSOMAL ABERRATIONS, Test System: CHINESE HAMSTER OVARY CELLS (CHO), Metabolic Activation: RAT, LIVER, S-9, AROCLOR 1254): inactive; negative
mutagenic call (End Point: IN VITRO CHROMOSOMAL ABERRATIONS, Test System: CHL CELLS, Metabolic Activation: NONE): active; positive (structural changes)
mutagenic call (End Point: IN VITRO CHROMOSOMAL ABERRATIONS, Test System: CHL CELLS, Metabolic Activation: RAT, LIVER, S-9, SODIUM PHENOBARBITAL AND 5,6-BENZOFLAVONE): active; positive (structural changes)
mutagenic call (End Point: IN VITRO CHROMOSOMAL ABERRATIONS, Test System: CHL/IU CELLS, Metabolic Activation: NONE): active; positive (ploidy changes)
mutagenic call (End Point: IN VITRO MICRONUCLEUS, Test System: CHL/IU CELLS, Metabolic Activation: NONE): active; positive
mutagenic call (Test System: AMES SALMONELLA TYPHIMURIUM, Strain/Indicator: TA97, Metabolic Activation: HAMSTER, LIVER, S-9, AROCLOR 1254 (10%), Method: PREINCUBATION): active; positive
mutagenic call (Test System: AMES SALMONELLA TYPHIMURIUM, Strain/Indicator: TA97, Metabolic Activation: NONE, Method: PREINCUBATION): inactive; negative
mutagenic call (Test System: AMES SALMONELLA TYPHIMURIUM, Strain/Indicator: TA97, Metabolic Activation: RAT, LIVER, S-9, AROCLOR 1254 (4 OR 10%), Method: STANDARD PLATE): active; positive
mutagenic call (Test System: AMES SALMONELLA TYPHIMURIUM, Strain/Indicator: TA97, Metabolic Activation: RAT, LIVER, S-9, AROCLOR 1254 (10%), Method: PREINCUBATION): active; positive
mutagenic call (Test System: AMES SALMONELLA TYPHIMURIUM, Strain/Indicator: TA98(1,8-DNP6), Metabolic Activation: TOBACCO, TX1 CELLS, Method: PREINCUBATION): inactive; negative
mutagenic call (Test System: AMES SALMONELLA TYPHIMURIUM, Strain/Indicator: TA98, Metabolic Activation: HAMSTER, LIVER, S-9, AROCLOR 1254 (10%), Method: PREINCUBATION): active; positive
mutagenic call (Test System: AMES SALMONELLA TYPHIMURIUM, Strain/Indicator: TA98, Metabolic Activation: PEA APICAL BUD S-9, Method: PREINCUBATION): active; positive
mutagenic call (Test System: AMES SALMONELLA TYPHIMURIUM, Strain/Indicator: TA98, Metabolic Activation: PEA APICAL BUD S-9, Method: STANDARD PLATE): active; positive
mutagenic call (Test System: AMES SALMONELLA TYPHIMURIUM, Strain/Indicator: TA98, Metabolic Activation: PLANT (PERSEA AMERICANA) S-117, Method: STANDARD PLATE): active; positive
mutagenic call (Test System: AMES SALMONELLA TYPHIMURIUM, Strain/Indicator: TA98, Metabolic Activation: PLANT (ZEA MAYS) S-9, Method: STANDARD PLATE): active; positive
mutagenic call (Test System: AMES SALMONELLA TYPHIMURIUM, Strain/Indicator: TA98, Metabolic Activation: RAT, BLADDER, S-9, PCB, Method: FLUCTUATION TEST): active; positive
mutagenic call (Test System: AMES SALMONELLA TYPHIMURIUM, Strain/Indicator: TA98, Metabolic Activation: RAT, LIVER, S-9, AROCLOR 1254 (10%), Method: PREINCUBATION): active; positive
mutagenic call (Test System: AMES SALMONELLA TYPHIMURIUM, Strain/Indicator: TA98, Metabolic Activation: RAT, LIVER, S-9, AROCLOR 1254, Method: PREINCUBATION): active; positive
mutagenic call (Test System: AMES SALMONELLA TYPHIMURIUM, Strain/Indicator: TA98, Metabolic Activation: RAT, LIVER, S-9, AROCLOR 1254, Method: STANDARD PLATE): active; positive
mutagenic call (Test System: AMES SALMONELLA TYPHIMURIUM, Strain/Indicator: TA98, Metabolic Activation: RAT, LIVER, S-9, PCB, Method: PREINCUBATION): active; positive
mutagenic call (Test System: AMES SALMONELLA TYPHIMURIUM, Strain/Indicator: TA98, Metabolic Activation: RAT, LIVER, S-9, PHENOBARBITAL AND 5,6-BENZOFLAVONE, Method: PREINCUBATION): active; positive
mutagenic call (Test System: AMES SALMONELLA TYPHIMURIUM, Strain/Indicator: TA98, Metabolic Activation: S-9, Method: PREINCUBATION): active; positive
mutagenic call (Test System: AMES SALMONELLA TYPHIMURIUM, Strain/Indicator: TA98, Metabolic Activation: TOBACCO, TX1 CELLS, Method: PREINCUBATION): active; positive
mutagenic call (Test System: AMES SALMONELLA TYPHIMURIUM, Strain/Indicator: TA100, Metabolic Activation: HAMSTER, LIVER, S-9, AROCLOR 1254 (10%), Method: PREINCUBATION): active; positive
mutagenic call (Test System: AMES SALMONELLA TYPHIMURIUM, Strain/Indicator: TA100, Metabolic Activation: NONE, Method: STANDARD PLATE): inactive; negative
mutagenic call (Test System: AMES SALMONELLA TYPHIMURIUM, Strain/Indicator: TA100, Metabolic Activation: PEA APICAL BUD S-9, Method: PREINCUBATION): inactive; negative
mutagenic call (Test System: AMES SALMONELLA TYPHIMURIUM, Strain/Indicator: TA100, Metabolic Activation: PEA APICAL BUD S-9, Method: STANDARD PLATE): inactive; negative
mutagenic call (Test System: AMES SALMONELLA TYPHIMURIUM, Strain/Indicator: TA100, Metabolic Activation: RAT, BLADDER, S-9, PCB, Method: FLUCTUATION TEST): active; positive
mutagenic call (Test System: AMES SALMONELLA TYPHIMURIUM, Strain/Indicator: TA100, Metabolic Activation: RAT, LIVER, S-9, AROCLOR 1254 (10%), Method: PREINCUBATION): active; positive
mutagenic call (Test System: AMES SALMONELLA TYPHIMURIUM, Strain/Indicator: TA100, Metabolic Activation: RAT, LIVER, S-9, AROCLOR 1254, Method: PREINCUBATION): active; positive
mutagenic call (Test System: AMES SALMONELLA TYPHIMURIUM, Strain/Indicator: TA100, Metabolic Activation: RAT, LIVER, S-9, PCB, Method: PREINCUBATION): active; positive
